Measured values from patent US8591892B2, “FTY720 increases CD74 expression and sensitizes cancer cells to anti-CD74 antibody-mediated cell death” (The Ohio State University, priority 2011, dated 2013).

Assays:
[1] = test system: primary tumor cells from MCL patients; experiment: Cell viability by annexin-V/PI staining and flow cytometry; format: cell-based, human; conditions: six MCL patients, 24 hours; FTY720 2.5 μM, immobilized milatuzumab 5 μg/ml
Description: FIG. 4. FTY720 sensitizes MCL cell lines and primary patient tumor cells to milatuzumab-mediated cytotoxicity. (A) Four MCL cell lines and primary cells from 6 patients were treated with FTY720 and/or milatuzumab plus cross-linking antibodies at the indicated concentrations. (B) Patient characteristics. (C) Individual patient responses. (D) Representative histograms summarizing patient responses. Cell death was determined by annexin V/PI staining and flow cytometry at 24 hours. Data are shown as the percentage of annexin V−/PI− cells (live cells) and are normalized to untreated controls.
Primary tumor cells were isolated from the peripheral blood/lymph nodes of patients with MCL. All patients studied were diagnosed with MCL according to the World Health Organization (WHO) classification of tumors (Swerdlow, 2008, World Health Organization Classification of Tumours of Haematopoetic and Lymphoid Tissues (ed 4th ed.) Lyon, France, International Agency on Research for Cancer). All samples contained at least 85% of CD19^+/CD20^+ B cells detected by flow cytometry. […]
To assess lysosomal volume, FTY720 treated cells were incubated with LYSOTRACKER™ green DND-26. […] Cell viability was measured at 24 hours by dual staining with annexin-V FITC and propidium iodide (PI). A total of 10,000 events were collected and analyzed using WinMDI. […]

[2] = test system: Jeko cells engrafted in SCID mice; experiment: Preclinical model of human MCL in SCID mice, survival; format: in vivo, mouse; conditions: n=10/group, from day 15; FTY720 5 mg/kg i.p. daily 2 weeks; antibodies 15 mg/kg i.p. every three days
Description: Evaluation of in vivo therapeutic activity of FTY720 and milatuzumab in the preclinical MCL model. SCID mice were injected i.v. with 40×10^6 JeKo cells and observed daily for signs of tumor burden.
Six to eight-week old female SCID mice (cb17 scid/scid) were purchased from Taconic Farms (Hudson, N.Y.) and maintained in pathogen-free, isolation cages. All animals were depleted of murine NK cells with intra-peritoneal (i.p.) injections of 0.2 mg of rat anti-mouse interleukin-2 receptor β monoclonal antibody (TMβ1) 1 day prior to engraftment with human tumor cell lines and then every week. Forty-eight hours post intravenous injection of 40×10^6 Jeko cells via tail vein, 50 mice were randomly distributed into 10 cages. Animals in groups of ten were treated starting at day 15 after engraftment. […] The third group was treated with FTY720 (5 mg/kg) every day for 2 weeks via i.p. The fourth group received milatuzumab (15 mg/kg) every three days, via i.p. injection. The fifth group received the combination of FTY720 and milatuzumab. Animals were monitored daily for signs of tumor burden, including hind limb paralysis, respiratory distress, weight loss, ruffled coat, and distended abdomen. Body weight was measured weekly for the first 3 weeks and then daily. […]

Jeko-1 = conditions: Jeko-1, single agent, previous dose titration; read-out: LC50 (the source's name); cited from earlier work
Mino = conditions: single agent, previous dose titration, read-out: LC50 (the source's name); cited from earlier work
UPN-1 = conditions: UPN-1, single agent, previous dose titration; read-out: LC50 (the source's name); cited from earlier work
Z-138 = conditions: Z-138, single agent, previous dose titration; read-out: LC50 (the source's name); cited from earlier work
[3] = rat, 4 mg/kg single IV dose; cited from earlier work
[4] = single agents, same dosage and delivery schedule; cited from earlier work
[5] = in subjects; cited from earlier work
[6] = test system: CD74 in 3 human AML cell lines; experiment: Flow cytometry of CD74 with/without permeabilization and IFN-γ; format: cell-based; conditions: 3 AML lines, IFN-γ 40 and 200 U/mL
Description: CD74 expression in bone marrow biopsy (BMB) specimens from non-M3 AML patients was evaluated by immunohistochemistry and, for 3 human AML cell lines, by flow cytometry, with/without permeabilization and with/without IFN-γ (40 and 200 U/mL). These cell lines were also tested in proliferation assays for responses to milatuzumab, with/without IFN-γ. In 13/14 BMB specimens, there was moderate to strong CD74 expression by leukemic blasts, which was mostly intracellular, usually with a perinuclear distribution (data not shown). […] IFN-γ induced intracellular CD74 in all 3 lines (from 85%-868%) (not shown).

[7] = test system: HLA-DR and CD74 in cancer cell lines; experiment: Flow cytometry of antigen expression after IFN-γ, summary over the panel; format: cell-based; conditions: two-day incubation with IFN-γ, Tables 4 and 5
Description: We examined whether the ability of anti-CD74 MAbs to kill cancer cells can be increased by using IFN-γ as an inducer of antigen expression. Using a panel of diverse cancer cell lines (including NHL, MM, GBM, and pancreatic and colonic carcinomas), we examined IFN-γ-induced changes in surface and cytoplasmic CD74 expression. Sensitivity of the malignant cells to milatuzumab was assessed with and without IFN-γ by cytotoxicity assays.
Expression of CD74, HLA-DR, and carcinoembryonic antigen (CEACAM5) was determined in untreated cells and cells exposed to 200 U of IFN-γ for 48 h by flow cytometry. Cells were stained with directly labeled MAbs in comparison to a directly labeled human IgG control. Antibodies were labeled using ALEXA FLUOR® 488 (Invitrogen, Carlsbad, Calif.). For determination of cytoplasmic antigen expression, cells were permeabilized prior to staining using the BD CYTOFIX/CYTOPERM™ kit (BD Biosciences, San Jose, Calif.).
Two-day incubation with IFN-γ increased surface and cytoplasmic expression of CD74 and HLA-DR (Table 4, Table 5). In all 4 colon cancer lines, IFN-γ increased cytoplasmic expression of both antigens, and surface expression of HLA-DR in ¾ and CD74 in 2/4 (Table 4, Table 5). Upregulation of HLA-DR and CD74 ranged from 23-3700% (Table 4, Table 5).

Molecule: CCCCCCCCc1ccc(CCC(N)(CO)CO)cc1 [FTY720, fingolimod]
- average cell death [1]: 47%
- median survival [2]: 31 days
- CC50 (Jeko-1): 12.5 µM
- CC50 (Mino): 7.5 µM
- CC50 (UPN-1): 7.5 µM
- CC50 (Z-138): 7.5 µM
- maximum plasma concentration [3]: 3.5 µM
- weight loss or other side effects [4]: did not cause any observed weight loss or other significant side effects

Molecule: veltuzumab: humanized IgG1 antibody against CD20
- immunogenicity [5]: less immunogenic in subjects than rituximab

B1: IFN-γ: interferon-γ, agent inducing CD74 expression (protein, UniProt P01579 24-161, looked up)
Interferon gamma: QDPYVKEAENLKKYFNAGHSDVADNGTLFLGILKNWKEESDRKIMQSQIVSFYFKLFKNFKDDQSIQKSVETIKEDMNVKFFNSNKKKRDDFEKLTNYSVTDLNVQRKAIHELIQVMAELSPAAKTGKRKRSQMLFRG
- upregulation of surface CD74 [6]: 69-117%
- upregulation of HLA-DR and CD74 [7]: 23-3700%
